Assay results from ChEMBL document CHEMBL1201862, “PubChem BioAssay data set” (2004).
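Method: 48-hour compound exposure of cells in 96-well plates, five concentrations, linear interpolation of endpoints. GI50 is the concentration that inhibits growth by half.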 Active and inactive are the calls of the source. Rule as the data show it: active = GI50 up to about 1.1 µM and inactive = higher.

How the values were obtained:
Assay in all cases: inhibition of tumour cell growth, NCI panel, 48 h
A498 = system: A498
HCT-116 = system: HCT-116
HOP-92 = system: HOP-92
SK-MEL-5 = system: SK-MEL-5
SN12C = system: SN12C
U-251 = system: U-251
KM12 = system: KM12
RPMI-8226 = system: RPMI-8226
SNB-75 = system: SNB-75
Malme-3M = system: Malme-3M
RXF 393 = system: RXF 393
SF-539 = system: SF-539
OVCAR-3 = system: OVCAR-3
OVCAR-4 = system: OVCAR-4
SNB-19 = system: SNB-19
OVCAR-8 = system: OVCAR-8
HT-29 = system: HT-29
A549 = system: A549
CAKI-1 = system: CAKI-1
HOP-62 = system: HOP-62

Measured: GI50

CON(C)C(=O)C(Cc1ccccc1)NC(=O)OCc1ccccc1 (stereo not given)
inactive: A498 > 100 µM | HCT-116 > 100 µM | HOP-92 > 100 µM | SK-MEL-5 97.7 µM | SN12C > 100 µM | U-251 > 100 µM | KM12 > 100 µM | RPMI-8226 > 100 µM | SNB-75 33.3 µM | Malme-3M 75.5 µM | RXF 393 > 100 µM | SF-539 > 100 µM | OVCAR-3 > 100 µM | OVCAR-4 > 100 µM | SNB-19 > 100 µM | OVCAR-8 > 100 µM | HT-29 > 100 µM | A549 > 100 µM | CAKI-1 > 100 µM | HOP-62 > 100 µM

O=NN(CCCl)C(=O)N[C@H]1CC[C@H](C(=O)O)CC1
inactive: A498 > 100 µM | HCT-116 > 100 µM | HOP-92 > 100 µM | SK-MEL-5 > 31.6 µM | SN12C > 100 µM | U-251 35.8 µM | KM12 > 100 µM | RPMI-8226 > 66.8 µM | SNB-75 > 80.2 µM | Malme-3M 94.8 µM | RXF 393 > 100 µM | SF-539 36.1 µM | OVCAR-3 > 100 µM | OVCAR-4 > 100 µM | SNB-19 > 61.1 µM | OVCAR-8 > 100 µM | HT-29 > 100 µM | A549 > 100 µM | CAKI-1 > 100 µM | HOP-62 95.5 µM
